The values that follow come from patent US8143282B2, “Heterocyclic compounds” (S*BIO Pte Ltd., priority 2005, dated 2012).

Bounds are passed on as bounds.

One test has as its target T1, HDAC1 enzyme (Homo sapiens, UniProt Q13547).
T1 construct: Amplification of human HDAC1 coding region from this cDNA library was cloned separately into the baculovirus expression pDEST20 vector; made in house; host or cells: SF9 insect cells, pDEST20-HDAC1 baculovirus
The test can be described thus: In vitro HDAC assay for determination of IC50 values (BIOMOL fluorescent-based HDAC activity assay). It counts as biochemical. In short, it runs like this:
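Recombinant GST-HDAC1, cloned from SW620 cDNA and expressed in Sf9 cells, tested in a fluorogenic Fluor de Lys deacetylase assay. Developer was added for 10 min and fluorescence read at 360/460 nm. IC50 came from concentration series.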

For the next test, the system named is Colo205 cells. Description: Cell-based proliferation assay for GI50 (CyQUANT), Colo205. The conditions noted are these: Homo sapiens, COLO 205, 96 h treatment, read-out: Cellular or Growth Inhibition Activity in Colo205 cells, GI50. The method, boiled down: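 Cells were seeded at 1000 (PC3), 5000 (Colo205), 6000 (HCT116) or 4000 (HEP3B) per well and left 24 h at 37° C. Compound treatment lasted 96 h. Growth was read by CyQUANT, and GI50 (50% growth inhibition) came from dose-response curves.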

For a further test, the system named is A2780. The test can be described thus: Cell-based proliferation assay for GI50 (CyQUANT), A2780. The conditions noted are these: Homo sapiens; A2780, 96 h treatment; read-out: Cellular or Growth Inhibition Activity, GI50, A2780. How it is done: Human colon cancer cell lines (Colo205, HCT116), Ovarian cancer cell line (A2780), Hepatoma cell line (HEP3B), Prostate cancer cell line (PC3) were obtained from ATCC or ECACC. Colo205 cells were cultivated in RPMI 1640 containing 2 mM L-Glutamine, 5% FBS, 1.0 mM Na Pyruvate, 1 U/ml of penicillin and 1 μg of streptomycin. HCT116 cells were cultivated in McCoy's containing RPMI 1640 containing 2 mM L-Glutamine, 5% FBS, 1 U/ml of penicillin and 1 μg of streptomycin. A2780 cells were cultivated in RPMI 1640 containing 2 mM L-Glutamine, 5% FBS, 1 U/ml of penicillin and 1 μg of streptomycin. HEP3B cells were cultivated in EMEM containing 2 mM L-glutamine, 5% FBS, 1% non essential amino acid, 1 mM Na Pyruvate, 1 U/ml of penicillin and 1 μg of streptomycin. PC3 cells were cultivated in F12K, 2 mM L-glutamine, 5% FBS, 1 U/ml of penicillin and 1 μg of streptomycin. PC3, Colo205, and HCT116 cells were seeded in 96-wells plate at 1000, 5000 and 6000 cells per well respectively. A2780 and HEP3B cells were seeded in 96-wells plate at 4000 cells per well respectively. The plates were incubated at 37° C., 5% CO2, for 24 h. Cells were treated with compounds at various concentrations for 96 h. Cell growth was then monitored using CyQUANT® cell proliferation assay (Invitrogen Pte Ltd). Dose response curves were plotted to determine GI50 values for the compounds using XL-fit (ID Business Solution, Emeryville, Calif.). GI50 is defined as the concentration of compound required for 50% inhibition of cell growth.

The subject of the next test is acetylated histone H3. Description: Histone H3 acetylation assay (immuno-blotting) in Colo205 cells. It counts as cell-based, Human. As to conditions: 10 μM, 24 h, western-blot. How it is done:
A hallmark of histone deacetylase (HDAC) inhibition is the increase in the acetylation level of histones. Histone acetylation, including H3, H4 and H2A can be detected by immuno-blotting (western-blot). Colo205 cells, approximately 5×10^5 cells, were seeded in the previously described medium, cultivated for 24 h and subsequently treated with HDAC inhibitory agents and a positive control at a final concentration of 10 μM. After 24 h, cells were harvested and lysed according to the instruction from Sigma Mammalian Cell Lysis Kit. The protein concentration was quantified using BCA method (Sigma Pte Ltd). The protein lysate was separated using 4-12% bis-tris SDS-PAGE gel (Invitrogen Pte Ltd) and was transferred onto PVDF membrane (BioRad Pte Ltd). The membrane was probed using primary antibody specific for acetylated histone H3 (Upstate Pte Ltd). The detection antibody, goat anti rabbit antibody conjugated with HRP was used according to the manufacturing instruction (Pierce Pte Ltd). After removing the detection antibody from the membrane, an enhanced chemiluminescent substrate for detection of HRP (Pierce Pte Ltd) was added onto the membrane. After removing the substrate, the membrane was exposed to an X-ray film (Kodak) for 1 sec-20 mins. The X-ray film was developed using the X-ray film processor. The density of each band observed on the developed film could be qualitatively analyzed using UVP Bioimaging software (UVP, Inc, Upland, Calif.). The values were then normalized against the density of actin in the corresponding samples to obtain the expression of the protein.

T1 sequence (Q13547 whole entry): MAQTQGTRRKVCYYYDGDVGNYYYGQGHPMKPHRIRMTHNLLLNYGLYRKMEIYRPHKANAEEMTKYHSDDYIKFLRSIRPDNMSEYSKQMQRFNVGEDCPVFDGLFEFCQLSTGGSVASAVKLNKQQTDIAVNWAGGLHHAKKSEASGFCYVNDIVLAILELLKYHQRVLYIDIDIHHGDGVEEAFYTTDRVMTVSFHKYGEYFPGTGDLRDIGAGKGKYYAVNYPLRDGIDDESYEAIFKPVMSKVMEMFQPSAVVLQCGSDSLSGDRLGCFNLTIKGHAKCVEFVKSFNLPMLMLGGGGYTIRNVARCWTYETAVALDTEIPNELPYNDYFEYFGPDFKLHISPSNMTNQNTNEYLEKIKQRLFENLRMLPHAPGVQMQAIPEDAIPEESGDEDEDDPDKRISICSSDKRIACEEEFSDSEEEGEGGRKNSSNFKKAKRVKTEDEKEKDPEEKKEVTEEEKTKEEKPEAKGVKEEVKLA

As to `CCCc1nc2cc(/C=C/C(=O)NO)ccc2n1CCNCCC(C)(C)C` [Compound 130, 3-{1-[2-(3,3-Dimethyl-butylamino)-ethyl]-2-propyl-1H-benzoimidazol-5-yl}-N-hydroxy-acrylamide], the IC50 (usually the point on the concentration scale where inhibition reaches its midpoint) on HDAC1 enzyme was determined as 0.036 µM. Moreover, the values for the 50% growth inhibitory concentration (GI50) with Colo205 cells and with A2780 were 0.15 µM and under 0.5 µM, respectively. In the test with acetylated histone H3, the “Histone Acetylation activities (Histone-3)” value is on record as “Active”.
